Assay results published in US5514694A, “Peptidyl ketoamides” (Georgia Tech Research Corp, priority 1993, dated 1996).
Where two headings read alike, the source gives them in different places.

Legend:
Type in all cases: biochemical
[1] = target: T1, Calpain I from human erythrocytes (Homo sapiens, UniProt P07384); experiment: Calpain I inhibition, Suc-Leu-Tyr-AMC hydrolysis (KI); settings: read-out: KI Cal I
T1 construct: Calpain I was purified from human erythrocytes; from tissue; host or cells: human erythrocytes
T1 sequence (P07384 1-714): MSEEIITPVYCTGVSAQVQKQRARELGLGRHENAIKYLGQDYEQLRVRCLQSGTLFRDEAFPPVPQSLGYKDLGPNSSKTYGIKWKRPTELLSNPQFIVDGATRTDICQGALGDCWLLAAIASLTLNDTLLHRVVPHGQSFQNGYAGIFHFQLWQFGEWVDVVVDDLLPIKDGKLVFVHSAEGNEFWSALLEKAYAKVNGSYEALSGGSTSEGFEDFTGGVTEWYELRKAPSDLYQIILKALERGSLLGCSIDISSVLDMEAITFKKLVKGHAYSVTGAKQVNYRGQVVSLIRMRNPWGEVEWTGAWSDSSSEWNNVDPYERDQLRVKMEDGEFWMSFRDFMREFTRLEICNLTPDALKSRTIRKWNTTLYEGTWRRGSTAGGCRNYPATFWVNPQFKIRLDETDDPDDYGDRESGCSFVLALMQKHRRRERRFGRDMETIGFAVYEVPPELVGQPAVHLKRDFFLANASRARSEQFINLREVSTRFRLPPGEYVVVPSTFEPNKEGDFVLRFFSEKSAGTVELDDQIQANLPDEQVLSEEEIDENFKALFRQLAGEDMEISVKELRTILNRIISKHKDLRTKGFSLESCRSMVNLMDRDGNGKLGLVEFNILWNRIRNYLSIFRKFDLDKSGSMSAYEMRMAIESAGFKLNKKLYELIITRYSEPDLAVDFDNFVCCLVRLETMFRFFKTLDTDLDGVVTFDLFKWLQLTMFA
T1 sequence (P04632 1-268 partner): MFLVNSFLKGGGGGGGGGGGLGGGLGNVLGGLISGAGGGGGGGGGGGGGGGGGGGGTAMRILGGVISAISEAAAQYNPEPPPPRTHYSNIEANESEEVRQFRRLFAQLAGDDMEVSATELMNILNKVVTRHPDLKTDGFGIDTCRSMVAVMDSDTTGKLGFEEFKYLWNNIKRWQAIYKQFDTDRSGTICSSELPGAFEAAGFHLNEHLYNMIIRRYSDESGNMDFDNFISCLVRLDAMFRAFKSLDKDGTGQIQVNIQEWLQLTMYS
Method: (§1) HEPES, heparin, and A23187 were obtained from Calbiochem. Suc-Leu-Tyr-AMC and chromogenic substrates were obtained from Sigma. Calpain I was purified from human erythrocytes according to the method of Kitahara (Kitahara et al., J. Biochem. 95, 1759-1766) omitting the Blue-Sepharose step. Calpain II from rabbit muscle and cathepsin B were purchased from Sigma. Papain was purchased from Calbiochem.
(§2) Peptide α-ketoamides were assayed as reversible enzyme inhibitors. Various concentrations of inhibitors in Me2 SO were added to the assay mixture which contained buffer and substrate. The reaction was started by the addition of the enzyme and the hydrolysis rates were followed spectrophotometrically or fluorimetrically.
(§3) Calpain I from human erythrocytes and calpain II from rabbit were assayed using Suc-Leu-Tyr-AMC Sasaki et al., J. Biol. Chem. 259, 12489-12494 (1984); incorporated herein by reference!, and the AMC (7-amino-4-methylcoumarin) release was followed fluorimetrically (excitation at 380 nm, and emmision at 460 nm). Calpains were assayed in 25 mM Tris pH=8.0, 10 mM CaC12. Fluorescence was followed using a Gilson FL-1A fluorometer or a Perkin-Elmer 203 Fluorescence spectrometer. Cathepsin B was assayed in 20 mM sodium acetate pH=5.2, 0.5 mM dithiothreitol using Bz-Phe-Val-Arg-p-nitroanilide as substrate. Alternately, cathepsin B was assayed with Z-Arg-Arg-AFC Barrett and Kirschke, Methods Enzymol. 80, 535-561 (1981); incorporated herein by reference!, and the AFC (7-amino-4-trifluoromethylcoumarin) release was followed fluorimetrically (excitation at 400 nm and emmision at 505 nm). Papain was assayed in 100 mM KPO4, 1 mM EDTA, 2.5 mM cysteine pH=6.0 using Bz-Arg-AMC or Bz-Arg-NA Kanaoka et al., Chem. Pharm. Bull. 25, 3126-3128 (1977); incorporated herein by reference! as a substrate. The AMC (7-amino-4-methylcoumarin) release was followed fluorimetrically (excitation at 380 nm, and emmision at 460 nm). Enzymatic hydrolysis rates were measured at various substrate and inhibitor concentrations, and KI values were determined by either Lineweaver-Burk plots or Dixon plots.
(§4) A 0.1M Hepes, 0.5M NaCl, pH 7.5 buffer was utilized for human leukocyte elastase (HLE), porcine pancreatic elastase (PPE), chymotrypsin and cathepsin G. A 0.1 Hepes, 0.01 M CaCl2, pH 7.5 buffer was utilized for trypsin, plasmin, and coagulation enzymes. A 50 mM Tris.HCl, 2 mM EDTA, 5 mM cysteine, pH 7.5 was used as a buffer for papain. A 88 mM KH2 PO4, 12 mM Na2 HPO4, 1.33 mM EDTA, 2.7 mM cysteine, pH 6.0 solution was used as a buffer for cathepsin B. A 20 mM Hepes, 10 mM CaCl2, 10 mM mercatoethanol, pH 7.2 buffer was utilized for calpain I and calpain II.

[2] = target: calpain II from rabbit; experiment: Calpain II inhibition, Suc-Leu-Tyr-AMC hydrolysis (KI); settings: for Ki: read-out: KI Cal II
Method: as §1, §2, §3, §4

[3] = target: T2, cathepsin B (Homo sapiens, UniProt P07858); experiment: Cathepsin B inhibition (KI); settings: read-out: KI Cat B
T2 construct: purchased Sigma
Method: as §1, §2, §3, §4

[4] = Table 2, Z-Leu--AA--CONH--CH2 CH(OH)-R

Row | SMILES | Ki ([1]; Table 1, Z-Leu--AA--CONHR) [nM] | Ki ([3]; Table 1, Z-Leu--AA--CONHR) [nM] | Ki ([2]; Table 1, Z-Leu--AA--CONHR) [nM] | also measured
1 | CC(C)CC(NC(=O)C(c1ccccc1)c1ccccc1)C(=O)NC(Cc1ccccc1)C(=O)C(=O)NCc1ccccn1 (stereo not drawn) [Ph2 CH-CO-Leu-Phe-CONH-CH2 -2-pyridyl, Ph2 CHCO-Leu-Phe-CONH--CH2 -2-Pyridyl] | – | – | – | Ki ([1]; Table 3, M1 CO-Leu--AA--CONH-R): 1100 nM; Ki ([2]; Table 3, M1 CO-Leu--AA--CONH-R): 360 nM; Ki ([3]; Table 3, M1 CO-Leu--AA--CONH-R): 2200 nM
2 | CCC(NC(=O)C(CC(C)C)NC(=O)C(c1ccccc1)c1ccccc1)C(=O)C(=O)NCCCN1CCOCC1 (stereo not drawn) [Ph2 CHCO-Leu-Abu-CONH--N--(CH2)3 -Morpholinyl] | – | – | – | Ki ([1]; Table 3, M1 CO-Leu--AA--CONH-R): 800 nM; Ki ([2]; Table 3, M1 CO-Leu--AA--CONH-R): 110 nM; Ki ([3]; Table 3, M1 CO-Leu--AA--CONH-R): 2300 nM
3 | CC(C)CC(NC(=O)C(c1ccccc1)c1ccccc1)C(=O)NC(Cc1ccccc1)C(=O)C(=O)NCCCN1CCOCC1 (stereo not drawn) [Ph2 CHCO-Leu-Phe-CONH--(CH2)3 -4-Morpholinyl] | – | – | – | Ki ([1]; Table 3, M1 CO-Leu--AA--CONH-R): 760 nM; Ki ([2]; Table 3, M1 CO-Leu--AA--CONH-R): 74 nM; Ki ([3]; Table 3, M1 CO-Leu--AA--CONH-R): 3800 nM
4 | CCC(NC(=O)[C@H](CC(C)C)NC(=O)OCc1ccccc1)C(=O)C(=O)NCCN1CCOCC1 (stereo partly drawn) [Z-Leu-Abu-CONH-(CH2)2 -4-morpholinyl, Z-Leu-Abu-CONH--(CH2)2 -4-Morpholinyl] | 1000 | 2500 | – | –
5 | CC[C@H](NC(=O)[C@H](CC(C)C)NC(=O)OCc1ccccc1)C(=O)C(=O)NCCc1ccccc1OC [Z-Leu-Abu-CONH-(CH2)2 C6 H4 (2-OCH3), Z-Leu-Abu-CONH--(CH2)2 C6 H4 (2-OCH3)] | 130 | 630 | – | –
6 | CCC(NC(=O)C(CC(C)C)NC(=O)OCc1ccccc1)C(=O)C(=O)NCCc1ccc(OC)cc1 (stereo not drawn) [Z-Leu-Abu-CONH-(CH2)2 C6 H4 (4-OCH3), Z-Leu-Abu-CONH--(CH2)2 C6 H4 (4-OCH3)] | 120 | 440 | 46 | –
7 | CC[C@H](NC(=O)[C@H](CC(C)C)NC(=O)OCc1ccccc1)C(=O)C(=O)NCCOCCO [Z-Leu-Abu-CONH-(CH2)2 O(CH2)2 OH, Z-Leu-Abu-CONH--(CH2)2 O(CH2)2 OH] | – | 2000 | – | –
8 | CCC(NC(=O)C(CC(C)C)NC(=O)OCc1ccccc1)C(=O)C(=O)NCCO (stereo not drawn) [Z-Leu-Abu-CONH-(CH2)2 OH, Z-Leu-Abu-CONH--(CH2)2 OH] | 800 | 4500 | – | –
9 | CCC(NC(=O)C(CC(C)C)NC(=O)OCc1ccccc1)C(=O)C(=O)NCCCn1ccnc1 (stereo not drawn) [Z-Leu-Abu-CONH-(CH2)3 -1-imidazolyl, Z-Leu-Abu-CONH--(CH2)3 -1-Imidazolyl] | 290 | 9900 | 68 | –
10 | CC[C@H](NC(=O)[C@H](CC(C)C)NC(=O)OCc1ccccc1)C(=O)C(=O)NCCCCCO [Z-Leu-Abu-CONH-(CH2)5 OH, Z-Leu-Abu-CONH--(CH2)5 OH] | – | 280 | 51 | –
11 | CCC(NC(=O)[C@H](CC(C)C)NC(=O)OCc1ccccc1)C(=O)C(=O)NCCc1cccn1C (stereo partly drawn) [Z-Leu-Abu-CONH--(CH2)2-2-(N-Methylpyrrole)] | – | 1200 | 76 | –
12 | CCC(NC(=O)C(CC(C)C)NC(=O)OCc1ccccc1)C(=O)C(=O)NCCCN1CCCC1=O (stereo not drawn) [Z-Leu-Abu-CONH--(CH2)3 -1-Pyrrolidinyl-2-one] | 1200 | 2000 | 270 | –
13 | CCC(NC(=O)C(CC(C)C)NC(=O)OCc1ccccc1)C(=O)C(=O)NCCCN1CCc2ccccc2C1 (stereo not drawn) [Z-Leu-Abu-CONH--(CH2)3 -2-Tetrahydroisoquinolinyl] | 310 | 8000 | – | –
14 | CCC(NC(=O)C(CC(C)C)NC(=O)OCc1ccccc1)C(=O)C(=O)NCC1(C)CC(O)CC(C)(C)C1 (stereo not drawn) [Z-Leu-Abu-CONH--CH2 --C6 H8 (1,3,3-(CH3)3 -5-OH)] | 420 | 890 | 69 | –
15 | CCC(NC(=O)C(CC(C)C)NC(=O)OCc1ccccc1)C(=O)C(=O)NCc1nccc2ccccc12 (stereo not drawn) [Z-Leu-Abu-CONH-CH2 -1-isoquinolinyl, Z-Leu-Abu-CONH--CH2 -1-Isoquinolinyl] | 250 | 300 | – | –
16 | CCC(NC(=O)C(CC(C)C)NC(=O)OCc1ccccc1)C(=O)C(=O)NCc1ccccn1 (stereo not drawn) [Z-Leu-Abu-CONH-CH2 -2-pyridyl, Z-Leu-Abu-CONH--CH2 -2-Pyridyl] | 640 | 3000 | 17 | inhibition of calpain II, in words [2]: best inhibitor of calpain II
17 | CCC(NC(=O)C(CC(C)C)NC(=O)OCc1ccccc1)C(=O)C(=O)NCC1CCCO1 (stereo not drawn) [Z-Leu-Abu-CONH-CH2 -2-tetrahydrofuryl, Z-Leu-Abu-CONH--CH2 -2-Tetrahydrofuryl] | 330 | 4500 | 66 | –
18 | CCC(NC(=O)C(CC(C)C)NC(=O)OCc1ccccc1)C(=O)C(=O)NCc1cccnc1 (stereo not drawn) [Z-Leu-Abu-CONH-CH2 -3-pyridyl, Z-Leu-Abu-CONH--CH2 -3-Pyridyl] | – | 1200 | 120 | inhibition of calpain II, in words [2]: substantially poorer inhibitors
19 | CCC(NC(=O)C(CC(C)C)NC(=O)OCc1ccccc1)C(=O)C(=O)NCc1ccncc1 (stereo not drawn) [Z-Leu-Abu-CONH-CH2 -4-pyridyl, Z-Leu-Abu-CONH--CH2 -4-Pyridyl] | 1100 | 6400 | 110 | inhibition of calpain II, in words [2]: substantially poorer inhibitors
20 | CC[C@H](NC(=O)[C@H](CC(C)C)NC(=O)OCc1ccccc1)C(=O)C(=O)NCc1cc(OC)cc(OC)c1 [Z-Leu-Abu-CONH-CH2 C6 H3 (3,5-(OCH3)2), Z-Leu-Abu-CONH--CH2 C6 H3 (3,5-(OCH3)2] | 2300 | 1800 | 22 | –
21 | CCC(NC(=O)C(CC(C)C)NC(=O)OCc1ccccc1)C(=O)C(=O)NCC(O)c1ccccc1 (stereo not drawn) [Z-Leu-Abu-CONH-CH2 CH(OH)-Ph, Z-Leu-Abu-CONH--CH2 CH(OH)Ph] | – | – | – | Ki [1, 4]: 1100 nM; inhibition of calpain II, in words [2]: best inhibitor for calpain II; Ki [2, 4]: 15 nM; Ki [3, 4]: 370 nM
22 | CC(C)C[C@H](NC(=O)OCc1ccccc1)C(=O)NC(Cc1ccccc1)C(=O)C(=O)NCc1nccc2ccccc12 (stereo partly drawn) [Z-Leu-Phe-CONH-CH2 -1-isoquinolinyl, Z-Leu-Phe-CONH--CH2 -1-Isoquinolinyl] | 2400 | 9600 | – | –
23 | CC(C)CC(NC(=O)OCc1ccccc1)C(=O)NC(Cc1ccccc1)C(=O)C(=O)NCc1ccccn1 (stereo not drawn) [Z-Leu-Phe-CONH-CH2 -2-pyridyl, Z-Leu-Phe-CONH--CH2 -2-Pyridyl] | – | 270 | 650 | –
